| SMILES | melting point [°C] |
| --- | --- |
| CNC1=Nc2ncccc2C(c2cnc[nH]2)=NC1c1cccs1 (stereo not shown) | 280 to 290 |
| Cn1ccnc1C1=NC(c2cccs2)C(N2CCC2)=Nc2ncccc21 (stereo not shown) | 215 to 217 |
| CNC1=Nc2ncccc2C(c2cn[nH]c2)=NC1c1cccs1 (stereo not shown) | 187 to 194 |
| c1csc(C2N=C(c3cc[nH]c3)c3cccnc3N=C2N2CCC2)c1 (stereo not shown) | 168 to 172 |

Other lines, results leading:

| melting point [°C] | SMILES |
| --- | --- |
| 165 to 170 | CNC1=Nc2ncccc2C(c2ccc[nH]2)=NC1c1cccs1 (stereo not shown) |
| 269 to 272 | CNC1=Nc2ncccc2C(c2cc[nH]n2)=NC1c1cccs1 (stereo not shown) |
| 110 to 114 | CNC1=Nc2ncccc2C(c2ccoc2)=NC1c1cccs1 (stereo not shown) |
| 85 to 88 | CNC1=Nc2ncccc2C(c2ccsc2)=NC1c1cccs1 (stereo not shown) |
| 90 to 95 | c1csc(C2N=C(c3ccsc3)c3cccnc3N=C2N2CCC2)c1 (stereo not shown) |
| 90 to 96 | c1csc(C2N=C(c3ccsc3)c3cccnc3N=C2NC2CC2)c1 (stereo not shown) |
